According to ChEMBL document CHEMBL1158775, “Quinones from Chirita eburnea” (J Nat Prod, 2005):

System: Radical scavenging activity
Assay: Antioxidant activity assessed as DPPH radical scavenging activity
Assay type: functional

IC50 [µM] | SMILES
45.7 | COc1c(O)cc2c(c1O)C(=O)C1=C(C2=O)C(C)(C)[C@H](C)O1
125 | C[C@@H]1OC2=C(C(=O)c3ccc(O)c(O)c3C2=O)C1(C)C
86.9 | O=C1O[C@H]([C@@H](O)CO)C(O)=C1O [ASCORBIC ACID]
